Where “and” joins values, the source holds several entries; their conditions need not be identical. Equal values may be shown once. Read-outs that look alike come from different tables or passages of the source.
System: patients with hematological tumors
[1] = 1A 250 mg N=10, cut-off 15 Jan. 2018
[2] = 1B 120 mg N=23, cut-off 15 Jan. 2018
[3] = 2C 45 mg N=25, cut-off 15 Jan. 2018

Excerpt: Herein, data are disclosed from this multicenter, open-label, first-in-human Phase I study of HDM201 in patients with advanced TP53 wild-type (WT) leukemias.
The clinical study design allowed parallel exploration of the safety, tolerability, and clinical activity (efficacy) of two broad dosing strategies for HDM201 during dose escalation: intermittent high dose regimens (Regimen 1A and 1B) and extended low dose regimens (Regimen 2A and 2C).
This clinical study utilized a Bayesian logistic regression model (BLRM) to support dose escalation and estimate the MTD for HDM201. The BLRM enables incorporation of available prior information and updates the model parameters based upon the DLTs observed in the clinical study at varied doses in evaluable patients.

Structure (SMILES): COc1ncc(-c2nc3c(n2C(C)C)[C@H](c2ccc(Cl)cc2)N(c2cc(Cl)cn(C)c2=O)C3=O)c(OC)n1 [HDM201, (S)-5-(5-Chloro-1-methyl-2-oxo-1,2-dihydro-pyridin-3-yl)-6-(4-chloro-phenyl)-2-(2,4-dimethoxy-pyrimidin-5-yl)-1-isopropyl-5,6-dihydro-1H-pyrrolo[3,4-d]imidazol-4-one]
- Abdominal Discomfort, Grade 3/4: 0 n (%)
- Abdominal Pain Upper, Grade 3/4: 0 n (%)
- Abdominal Pain, Grade 3/4: 0 n (%)
- Amylase Increased, Grade 3/4: 0 n (%)
- Arthralgia, Grade 3/4: 0 n (%)
- Asthenia, Grade 3/4: 0 n (%)
- Atrial Fibrillation, Grade 3/4: 0 n (%)
- Atypical Pneumonia, Grade 3/4: 0 n (%)
- Balanitis Candida, Grade 3/4: 0 n (%)
- Blood Alkaline Phosphatase Increased, Grade 3/4: 0 n (%)
- Blood Bilirubin Increased, Grade 3/4: 0 n (%)
- Blood Phosphorus Increased, Grade 3/4: 0 n (%)
- Cardiac Failure, Grade 3/4: 0 n (%)
- Conjunctival Haemorrhage, Grade 3/4: 0 n (%)
- Constipation, Grade 3/4: 0 n (%)
- Cough, Grade 3/4: 0 n (%)
- Cystitis Viral, Grade 3/4: 0 n (%)
- Cytomegalovirus Infection, Grade 3/4: 0 n (%)
- Decreased Appetite, Grade 3/4: 0 n (%)
- Diarrhoea, Grade 3/4: 0 n (%)
- Dyspepsia, Grade 3/4: 0 n (%)
- Epistaxis, Grade 3/4: 0 n (%)
- Fatigue, Grade 3/4: 0 n (%)
- General Physical Health Deterioration, Grade 3/4: 0 n (%)
- Gingival Bleeding, Grade 3/4: 0 n (%)
- Graft Versus Host Disease, Grade 3/4: 0 n (%)
- Haemoglobin Decreased, Grade 3/4: 0 n (%)
- Headache, Grade 3/4: 0 n (%)
- Hyperbilirubinaemia, Grade 3/4: 0 n (%)
- Hyperglycaemia, Grade 3/4: 0 n (%)
- Hyperphosphataemia, Grade 3/4: 0 n (%)
- Hyperuricaemia, All Grades: 2 n (%) and 2 (33.3) n (%) and 1 (14.3) n (%)
- Hypoalbuminaemia, Grade 3/4: 0 n (%)
- Hypocalcaemia, Grade 3/4: 0 n (%)
- Hypokalaemia, Grade 3/4: 0 n (%)
- Hypomagnesaemia, Grade 3/4: 0 n (%)
- Hyponatraemia, Grade 3/4: 0 n (%)
- Hypotension, Grade 3/4: 0 n (%)
- Infective Glossitis, Grade 3/4: 0 n (%)
- Influenza Like Illness, Grade 3/4: 0 n (%)
- Iron Overload, Grade 3/4: 0 n (%)
- Lip Oedema, Grade 3/4: 0 n (%)
- Malaise, Grade 3/4: 0 n (%)
- Mouth Haemorrhage, Grade 3/4: 0 n (%)
- Nausea, Grade 3/4: 0 n (%)
- Oedema Peripheral, Grade 3/4: 0 n (%)
- Oedema, Grade 3/4: 0 n (%)
- Oral Disorder, Grade 3/4: 0 n (%)
- Pain In Extremity, Grade 3/4: 0 n (%)
- Pneumonia, Grade 3/4: 0 n (%)
- Pollakiuria, Grade 3/4: 0 n (%)
- Pyrexia, Grade 3/4: 0 n (%)
- Rash Erythematous, Grade 3/4: 0 n (%)
- Rash Papular, Grade 3/4: 0 n (%)
- Rash, Grade 3/4: 0 n (%)
- Rectal Haemorrhage, Grade 3/4: 0 n (%)
- Skin Exfoliation, Grade 3/4: 0 n (%)
- Vomiting, Grade 3/4: 0 n (%)
- Weight Decreased, Grade 3/4: 0 n (%)
- Amylase Increased, All Grades [1]: 1 (10.0) n (%)
- Amylase Increased, Grade 3/4 [1]: 1 (10.0) n (%)
- Anemia, All Grades [1]: 5 (50.0) n (%)
- Anemia, Grade 3/4 [1]: 3 (30.0) n (%)
- Aspiration, All Grades [1]: 1 (10.0) n (%)
- Aspiration, Grade 3/4 [1]: 1 (10.0) n (%)
- Blood Creatinine Increased, All Grades [1]: 2 (20.0) n (%)
- Blood Creatinine Increased, Grade 3/4 [1]: 0 n (%)
- Blood Uric Acid Increased, All Grades [1]: 2 (20.0) n (%)
- Blood Uric Acid Increased, Grade 3/4 [1]: 1 (10.0) n (%)
- Diarrhoea, All Grades [1]: 3 (30.0) n (%)
- Diarrhoea, Grade 3/4 [1]: 0 n (%)
- Febrile Neutropenia, All Grades [1]: 2 (20.0) n (%)
- Febrile Neutropenia, Grade 3/4 [1]: 2 (20.0) n (%)
- Hyperkalaemia, All Grades [1]: 2 (20.0) n (%)
- Hyperkalaemia, Grade 3/4 [1]: 1 (10.0) n (%)
- Hyperuricaemia, All Grades [1]: 1 (10.0) n (%)
- Hyperuricaemia, Grade 3/4 [1]: 1 (10.0) n (%)
- Hypocalcaemia, All Grades [1]: 3 (30.0) n (%)
- Hypocalcaemia, Grade 3/4 [1]: 1 (10.0) n (%)
- Hypomagnesaemia, All Grades [1]: 2 (20.0) n (%)
- Hypomagnesaemia, Grade 3/4 [1]: 0 n (%)
- Leukopenia, All Grades [1]: 1 (10.0) n (%)
- Leukopenia, Grade 3/4 [1]: 1 (10.0) n (%)
- Megakaryocytes Abnormal, All Grades [1]: 1 (10.0) n (%)
- Megakaryocytes Abnormal, Grade 3/4 [1]: 1 (10.0) n (%)
- Nausea, All Grades [1]: 3 (30.0) n (%)
- Nausea, Grade 3/4 [1]: 0 n (%)
- Neutropenia, All Grades [1]: 4 (40.0) n (%)
- Neutropenia, Grade 3/4 [1]: 3 (30.0) n (%)
- Thrombocytopenia, All Grades [1]: 5 (50.0) n (%)
- Thrombocytopenia, Grade 3/4 [1]: 5 (50.0) n (%)
- Tumour Lysis Syndrome, All Grades [1]: 5 (50.0) n (%)
- Tumour Lysis Syndrome, Grade 3/4 [1]: 5 (50.0) n (%)
- Cycle 1 DLTs (1A (d1 Q3W) 250 mg, 3 evaluable patients): 0
- Cycle 1 DLTs (1A (d1 Q3W) 350 mg, 4 evaluable patients): 0
- Cycle 1 DLTs (1A (d1 Q3W) 400 mg, 9 evaluable patients): 4
- Cycle 1 DLTs (1A total N = 16): 4:
- Anemia, All Grades [2]: 7 (30.4) n (%)
- Anemia, Grade 3/4 [2]: 2 (8.7) n (%)
- Asthenia, All Grades [2]: 3 (13.0) n (%)
- Asthenia, Grade 3/4 [2]: 1 (4.3) n (%)
- Febrile Bone Marrow Aplasia, All Grades [2]: 3 (13.0) n (%)
- Febrile Bone Marrow Aplasia, Grade 3/4 [2]: 2 (8.7) n (%)
- Leukopenia, All Grades [2]: 3 (13.0) n (%)
- Leukopenia, Grade 3/4 [2]: 3 (13.0) n (%)
- Nausea, All Grades [2]: 6 (26.1) n (%)
- Nausea, Grade 3/4 [2]: 0 n (%)
- Neutropenia, All Grades [2]: 4 (17.4) n (%)
- Neutropenia, Grade 3/4 [2]: 4 (17.4) n (%)
- Thrombocytopenia, All Grades [2]: 10 (43.5) n (%)
- Thrombocytopenia, Grade 3/4 [2]: 10 (43.5) n (%)
- Tumour Lysis Syndrome, All Grades [2]: 4 (17.4) n (%)
- Tumour Lysis Syndrome, Grade 3/4 [2]: 3 (13.0) n (%)
- Vomiting, All Grades [2]: 3 (13.0) n (%)
- Vomiting, Grade 3/4 [2]: 0 n (%)
- Cycle 1 DLTs (1B (d1, d8 Q4W) 150 mg, 6 evaluable patients): 1
- Cycle 1 DLT events (1B total N = 6): Acute Kidney
- Cycle 1 DLTs (1B total N = 6): 1:
- Cycle 1 DLTs (2A (2 weeks on/2 weeks off) 20 mg, 3 evaluable patients): 0
- Cycle 1 DLTs (2A (2 weeks on/2 weeks off) 30 mg, 3 evaluable patients): 0
- Cycle 1 DLTs (2A total N = 6): 0
- Alopecia, All Grades [3]: 3 (12.0) n (%)
- Alopecia, Grade 3/4 [3]: 0 n (%)
- Anemia, All Grades [3]: 13 (52.0) n (%)
- Anemia, Grade 3/4 [3]: 9 (36.0) n (%)
- Decreased Appetite, All Grades [3]: 6 (24.0) n (%)
- Decreased Appetite, Grade 3/4 [3]: 0 n (%)
- Fatigue, All Grades [3]: 5 (20.0) n (%)
- Fatigue, Grade 3/4 [3]: 2 (8.0) n (%)
- Febrile Neutropenia, All Grades [3]: 8 (32.0) n (%)
- Febrile Neutropenia, Grade 3/4 [3]: 8 (32.0) n (%)
- Leukopenia, All Grades [3]: 5 (20.0) n (%)
- Leukopenia, Grade 3/4 [3]: 5 (20.0) n (%)
- Nausea, All Grades [3]: 12 (48.0) n (%)
- Nausea, Grade 3/4 [3]: 0 n (%)
- Neutropenia, All Grades [3]: 11 (44.0) n (%)
- Neutropenia, Grade 3/4 [3]: 10 (40.0) n (%)
- Thrombocytopenia, All Grades [3]: 13 (52.0) n (%)
- Thrombocytopenia, Grade 3/4 [3]: 12 (48.0) n (%)
- Tumour Lysis Syndrome, All Grades [3]: 3 (12.0) n (%)
- Tumour Lysis Syndrome, Grade 3/4 [3]: 3 (12.0) n (%)
- Vomiting, All Grades [3]: 6 (24.0) n (%)
- Vomiting, Grade 3/4 [3]: 0 n (%)
- Cycle 1 DLTs (2C (1 week on/3 weeks off) 45 mg, 8 evaluable patients): 1
- Cycle 1 DLTs (2C total N = 8): 1
- Patients with DLT (Regimen 2C 45 mg): 12.5%
- Anemia, CTCAE grade 3/4 related to study drug (Regimen 2C 45 mg, 8 patients): 37.5%
- Febrile neutropenia, CTCAE grade 3/4 related to study drug (Regimen 2C 45 mg, 8 patients): 37.5%
- Neutropenia, CTCAE grade 3/4 related to study drug (Regimen 2C 45 mg, 8 patients): 37.5%
- Patients with at least one CTCAE grade 3/4 AE related to study drug (Regimen 2C 45 mg, 8 patients): 62.5%
- Thrombocytopenia, CTCAE grade 3/4 related to study drug (Regimen 2C 45 mg, 8 patients): 62.5%
- Treatment-related anemia, all grades (Regimen 2C 45 mg, 8 patients): 62.5%
- Treatment-related decreased appetite, all grades (Regimen 2C 45 mg, 8 patients): 50.0%
- Treatment-related febrile neutropenia, all grades (Regimen 2C 45 mg, 8 patients): 37.5%
- Treatment-related nausea, all grades (Regimen 2C 45 mg, 8 patients): 37.5%
- Treatment-related neutropenia, all grades (Regimen 2C 45 mg, 8 patients): 50.0%
- Treatment-related thrombocytopenia, all grades (Regimen 2C 45 mg, 8 patients): 62.5%

From patent publication US20220031697A1, “Dose and regimen for an hdm2-p53 interaction inhibitor in hematological tumors” (Novartis AG, priority 2017, published 2022)
